According to ChEMBL document CHEMBL1201862, “PubChem BioAssay data set” (2004):
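48-hour exposure; five concentrations; linearly interpolated endpoints. GI50 marks 50% less growth.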 Activity calls are given as the source filed them. Rule as the data show it: active = GI50 up to about 1.1 µM and inactive = higher.

Tests used:
Experiment in all cases: NCI tumour cell line growth inhibition, 48 h
A498 = test system: A498
A549 = test system: A549
ACHN = test system: ACHN
CAKI-1 = test system: CAKI-1
CCRF-CEM = test system: CCRF-CEM
COLO 205 = test system: COLO 205
DLD-1 = test system: DLD-1
DMS-114 = test system: DMS-114
DMS-273 = test system: DMS-273
EKVX = test system: EKVX
HCC 2998 = test system: HCC 2998
HCT-116 = test system: HCT-116
HCT-15 = test system: HCT-15
HL-60 = test system: HL-60
HOP-18 = test system: HOP-18
HOP-62 = test system: HOP-62
HOP-92 = test system: HOP-92
HT-29 = test system: HT-29
IGROV-1 = test system: IGROV-1
K562 = test system: K562
KM-20L2 = test system: KM-20L2
KM12 = test system: KM12
LOX IMVI = test system: LOX IMVI
LXFL 529 = test system: LXFL 529
M14 = test system: M14
M19-MEL = test system: M19-MEL
MOLT-4 = test system: MOLT-4
Malme-3M = test system: Malme-3M
NCI-H226 = test system: NCI-H226
NCI-H23 = test system: NCI-H23
NCI-H460 = test system: NCI-H460
NCI-H522 = test system: NCI-H522
OVCAR-3 = test system: OVCAR-3
OVCAR-4 = test system: OVCAR-4
OVCAR-5 = test system: OVCAR-5
OVCAR-8 = test system: OVCAR-8
RPMI-8226 = test system: RPMI-8226
RXF 393 = test system: RXF 393
SF-268 = test system: SF-268
SF-295 = test system: SF-295
SF-539 = test system: SF-539
SK-MEL-28 = test system: SK-MEL-28
SK-MEL-2 = test system: SK-MEL-2
SK-MEL-5 = test system: SK-MEL-5
SK-OV-3 = test system: SK-OV-3
SN12C = test system: SN12C
SNB-19 = test system: SNB-19
SNB-75 = test system: SNB-75
SNB-78 = test system: SNB-78
SR = test system: SR
SW-620 = test system: SW-620
TK-10 = test system: TK-10
U-251 = test system: U-251
UACC-257 = test system: UACC-257
UACC-62 = test system: UACC-62
UO-31 = test system: UO-31
XF498 = test system: XF498
786-0 = test system: 786-0

Which results are given for `COC(=O)C(=O)C(C(=O)Nc1cccc(C)c1C)C1Sc2ccccc2NC1=O` (stereo not drawn)?
GI50 (A498): 11.5 µM (inactive); GI50 (A549): 10.9 µM (inactive); GI50 (ACHN): > 25 µM (inactive); GI50 (CAKI-1): > 25 µM (inactive); GI50 (CCRF-CEM): > 25 µM (inactive); GI50 (COLO 205): 8.97 µM (inactive); GI50 (DLD-1): 11.2 µM (inactive); GI50 (DMS-114): 5.83 µM (inactive); GI50 (DMS-273): 11.8 µM (inactive); GI50 (EKVX): > 25 µM (inactive); GI50 (HCC 2998): 15.6 µM (inactive); GI50 (HCT-116): 8.22 µM (inactive); GI50 (HCT-15): 11.4 µM; GI50 (HL-60): 4.89 µM (inactive); GI50 (HOP-18): > 25 µM (inactive); GI50 (HOP-62): 19.6 µM (inactive); GI50 (HOP-92): 10.4 µM (inactive); GI50 (HT-29): 7.8 µM (inactive); GI50 (IGROV-1): 16.8 µM (inactive); GI50 (K562): 9.79 µM (inactive); GI50 (KM-20L2): 8.67 µM (inactive); GI50 (KM12): 7.69 µM (inactive); GI50 (LOX IMVI): 13.9 µM (inactive); GI50 (LXFL 529): > 25 µM (inactive); GI50 (M14): 8.55 µM (inactive); GI50 (M19-MEL): 14.6 µM (inactive); GI50 (MOLT-4): > 25 µM (inactive); GI50 (Malme-3M): 6.37 µM (inactive); GI50 (NCI-H226): 16.7 µM (inactive); GI50 (NCI-H23): > 25 µM (inactive); GI50 (NCI-H460): 13.4 µM (inactive); GI50 (NCI-H522): 15.8 µM (inactive); GI50 (OVCAR-3): 20 µM (inactive); GI50 (OVCAR-4): > 25 µM (inactive); GI50 (OVCAR-5): > 25 µM (inactive); GI50 (OVCAR-8): 19.5 µM (inactive); GI50 (RPMI-8226): 9.48 µM (inactive); GI50 (RXF 393): 7.55 µM (inactive); GI50 (SF-268): 17.6 µM (inactive); GI50 (SF-295): 12.1 µM (inactive); GI50 (SF-539): 12 µM (inactive); GI50 (SK-MEL-28): 14.6 µM (inactive); GI50 (SK-MEL-2): 5.75 µM (inactive); GI50 (SK-MEL-5): 8.11 µM (inactive); GI50 (SK-OV-3): > 25 µM (inactive); GI50 (SN12C): > 25 µM (inactive); GI50 (SNB-19): 21.9 µM (inactive); GI50 (SNB-75): 9.84 µM (inactive); GI50 (SNB-78): 21.2 µM (inactive); GI50 (SR): 13.7 µM (inactive); GI50 (SW-620): 8.55 µM (inactive); GI50 (TK-10): > 25 µM (inactive); GI50 (U-251): 12.3 µM (inactive); GI50 (UACC-257): 16.4 µM (inactive); GI50 (UACC-62): 8.09 µM (inactive); GI50 (UO-31): > 25 µM (inactive); GI50 (XF498): > 25 µM (inactive)

For `COC(=O)c1cccn1C(=O)n1cccc1`, which GI50 (786-0) is on record?
Its GI50 is > 100 µM (inactive).

What about the GI50 (A498) of the same molecule?
Its GI50 is > 100 µM (inactive).

And the GI50 (A549)?
Its GI50 is > 100 µM (inactive).

And the GI50 (ACHN)?
Its GI50 is > 100 µM (inactive).

What about the GI50 (CAKI-1) of the same molecule?
The GI50 was > 100 µM (inactive).

And the GI50 (CCRF-CEM)?
Its GI50 is > 100 µM (inactive).

What about the GI50 (COLO 205) of the same molecule?
Its GI50 is > 100 µM (inactive).

And the GI50 (DLD-1)?
The GI50 was > 100 µM (inactive).

And the GI50 (DMS-114)?
The GI50 was > 100 µM (inactive).

What about the GI50 (DMS-273) of the same molecule?
The GI50 was > 100 µM (inactive).

What about the GI50 (EKVX) of the same molecule?
Its GI50 is > 100 µM (inactive).

And the GI50 (HCC 2998)?
Its GI50 is > 100 µM (inactive).

And the GI50 (HCT-116)?
The GI50 was > 100 µM (inactive).

What about the GI50 (HL-60) of the same molecule?
The GI50 was > 100 µM (inactive).

And the GI50 (HOP-18)?
Its GI50 is > 100 µM (inactive).

And the GI50 (HOP-62)?
The GI50 was > 100 µM (inactive).

And the GI50 (HOP-92)?
The GI50 was > 100 µM (inactive).

What about the GI50 (HT-29) of the same molecule?
Its GI50 is > 100 µM (inactive).

What about the GI50 (IGROV-1) of the same molecule?
Its GI50 is > 100 µM (inactive).

What about the GI50 (K562) of the same molecule?
The GI50 was > 100 µM (inactive).

What about the GI50 (KM-20L2) of the same molecule?
Its GI50 is > 100 µM (inactive).

And the GI50 (KM12)?
The GI50 was > 100 µM (inactive).

What about the GI50 (LOX IMVI) of the same molecule?
Its GI50 is > 100 µM (inactive).

And the GI50 (LXFL 529)?
The GI50 was > 100 µM (inactive).

And the GI50 (M14)?
The GI50 was > 100 µM (inactive).

And the GI50 (M19-MEL)?
Its GI50 is > 100 µM (inactive).

What about the GI50 (MOLT-4) of the same molecule?
Its GI50 is > 100 µM (inactive).

And the GI50 (Malme-3M)?
Its GI50 is > 100 µM (inactive).

What about the GI50 (NCI-H226) of the same molecule?
The GI50 was > 100 µM (inactive).

What about the GI50 (NCI-H23) of the same molecule?
The GI50 was > 100 µM (inactive).

And the GI50 (NCI-H460)?
The GI50 was > 100 µM (inactive).

What about the GI50 (NCI-H522) of the same molecule?
The GI50 was > 100 µM (inactive).

And the GI50 (OVCAR-3)?
The GI50 was > 100 µM (inactive).

What about the GI50 (OVCAR-4) of the same molecule?
The GI50 was > 100 µM (inactive).

What about the GI50 (OVCAR-5) of the same molecule?
The GI50 was > 100 µM (inactive).

What about the GI50 (OVCAR-8) of the same molecule?
Its GI50 is > 100 µM (inactive).

And the GI50 (RXF 393)?
Its GI50 is > 100 µM (inactive).

What about the GI50 (SF-268) of the same molecule?
The GI50 was > 100 µM (inactive).

And the GI50 (SF-295)?
Its GI50 is > 100 µM (inactive).

And the GI50 (SF-539)?
Its GI50 is > 100 µM (inactive).

What about the GI50 (SK-MEL-28) of the same molecule?
Its GI50 is > 100 µM (inactive).

And the GI50 (SK-MEL-2)?
The GI50 was > 100 µM (inactive).

And the GI50 (SK-MEL-5)?
Its GI50 is > 100 µM (inactive).

And the GI50 (SK-OV-3)?
Its GI50 is > 100 µM (inactive).

And the GI50 (SN12C)?
Its GI50 is > 100 µM (inactive).

And the GI50 (SNB-19)?
Its GI50 is > 100 µM (inactive).

And the GI50 (SNB-75)?
The GI50 was 62.1 µM (inactive).

And the GI50 (SNB-78)?
Its GI50 is > 100 µM (inactive).

What about the GI50 (SR) of the same molecule?
Its GI50 is > 100 µM (inactive).

And the GI50 (SW-620)?
The GI50 was > 100 µM (inactive).

And the GI50 (TK-10)?
Its GI50 is > 100 µM (inactive).

What about the GI50 (U-251) of the same molecule?
Its GI50 is > 100 µM (inactive).

And the GI50 (UACC-257)?
Its GI50 is > 100 µM (inactive).

What about the GI50 (UACC-62) of the same molecule?
Its GI50 is > 100 µM (inactive).

What about the GI50 (UO-31) of the same molecule?
Its GI50 is > 100 µM (inactive).

And the GI50 (XF498)?
Its GI50 is > 100 µM (inactive).
